Where “and” joins values, the source holds several entries; their conditions need not be identical. Equal entries are not always repeated.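 Protocol summary: plate cells (96-well), add compound at 5 concentrations, incubate 48 h, interpolate endpoints linearly. GI50 is the concentration that inhibits growth by half. TGI: concentration producing complete growth inhibition.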
Assays:
Assay in all cases: NCI-60 cell line screen, 48 h
[1] = test system: MOLT-4 leukemia
[2] = test system: RPMI-8226 leukemia
[3] = test system: NCI-H226 lung
[4] = test system: SF-268 CNS
[5] = test system: CAKI-1 renal
[6] = test system: HCT-116 colon
[7] = test system: SF-539 CNS
[8] = test system: OVCAR-5 ovarian
[9] = test system: UO-31 renal
[10] = test system: MALME-3M melanoma

SMILES: COC(=O)C(NC(=O)c1ccccc1)c1ccc(OC)c(I)c1 (centres undefined)
- GI50 [1]: 48.9 µM
- TGI [1]: > 100 µM
- GI50 [2]: 44.2 µM
- TGI [2]: > 100 µM
- GI50 [3]: > 100 µM
- TGI [3]: > 100 µM
- GI50 [4]: > 100 µM
- TGI [4]: > 100 µM
- GI50 [5]: 77.6 µM
- TGI [5]: > 100 µM
- GI50 [6]: 33.7 µM
- TGI [6]: > 100 µM
- GI50 [7]: > 100 µM
- TGI [7]: > 100 µM
- GI50 [8]: > 100 µM
- TGI [8]: > 100 µM
- GI50 [9]: 76 µM
- TGI [9]: > 100 µM

SMILES: CCOC(=O)NC/C=C/CO
- TGI [1]: > 100 µM
- TGI [2]: > 100 µM
- TGI [3]: > 100 µM
- TGI [4]: > 100 µM
- TGI [5]: > 100 µM
- TGI [10]: > 100 µM
- TGI [6]: > 100 µM
- TGI [7]: > 100 µM
- TGI [9]: > 100 µM

SMILES: Clc1ccc(N=CNc2ccc(-c3nc4ccccc4[nH]3)cc2)cc1
- GI50 [1]: > 100 µM
- TGI [1]: > 100 µM
- GI50 [2]: 7.57 µM
- TGI [2]: > 100 µM
- GI50 [3]: 65.4 µM
- TGI [3]: > 100 µM
- GI50 [4]: 19.6 µM
- TGI [4]: > 100 µM
- GI50 [5]: 0.827 µM
- TGI [5]: 42.5 µM
- GI50 [6]: > 100 µM
- TGI [6]: > 100 µM
- GI50 [8]: > 100 µM
- TGI [8]: > 100 µM
- GI50 [9]: 13.9 µM
- TGI [9]: > 100 µM

SMILES: Cc1cc2c(SCc3ccccc3Cl)nc(N)nc2nc1C
- TGI [2]: > 100 µM
- TGI [4]: > 100 µM
- TGI [5]: > 100 µM
- TGI [10]: > 100 µM
- TGI [6]: > 100 µM
- TGI [7]: > 100 µM
- TGI [8]: > 100 µM
- TGI [9]: > 100 µM

SMILES: Cc1cc(C2(c3cc(C)c(O)c4ncccc34)OC(=O)c3ccccc32)c2cccnc2c1O
- TGI [1]: > 100 µM
- TGI [2]: > 100 µM
- TGI [5]: 1.07 µM
- TGI [10]: > 100 µM
- TGI [6]: > 100 µM
- GI50 [7]: 0.02 µM
- TGI [7]: 4.69 µM and 11.7 µM
- TGI [8]: > 100 µM
